Data published in the supplement of paper PMC13380429.

Columns and labels:
Conditions in all cases: 72 h
HepG2 [1] = test: drug sensitivity score (DSS) for viability; higher = more toxic; extreme values may be limits of the assay
U2OS [2] = test: as above
Caco-2 [3] = test: as above
Vero E6 [4] = test: as above
HepG2 [5] = test: relative viability EC50 (midpoint between 100% and the lowest measured viability); higher = less toxic
U2OS [6] = test: as above
Caco-2 [7] = test: as above
Vero E6 [8] = test: as above
HepG2 [9] = test: cell viability relative to DMSO; higher = less toxic
U2OS [10] = test: as above
Caco-2 [11] = test: as above
Vero E6 [12] = test: as above
Calu-3 [13] = test: drug sensitivity score (DSS) for viability; higher = more toxic; extreme values may be limits of the assay
Calu-3 [14] = test: cell viability relative to DMSO; higher = less toxic

| Structure (SMILES) | drug sensitivity score (HepG2 [1]) | drug sensitivity score (U2OS [2]) | drug sensitivity score (Caco-2 [3]) | drug sensitivity score (Vero E6 [4]) | relative viability EC50 (HepG2 [5]) | relative viability EC50 (U2OS [6]) | relative viability EC50 (Caco-2 [7]) | relative viability EC50 (Vero E6 [8]) | cell viability (HepG2 [9]; 1 nM) | cell viability (HepG2 [9]; 10 nM) | cell viability (HepG2 [9]; 100 nM) | cell viability (HepG2 [9]; 1000 nM) | cell viability (HepG2 [9]; 10000 nM) | cell viability (U2OS [10]; 1 nM) | cell viability (U2OS [10]; 10 nM) | cell viability (U2OS [10]; 100 nM) | cell viability (U2OS [10]; 1000 nM) | cell viability (U2OS [10]; 10000 nM) | cell viability (Caco-2 [11]; 1 nM) | cell viability (Caco-2 [11]; 10 nM) | cell viability (Caco-2 [11]; 100 nM) | cell viability (Caco-2 [11]; 1000 nM) | cell viability (Caco-2 [11]; 10000 nM) | cell viability (Vero E6 [12]; 1 nM) | cell viability (Vero E6 [12]; 10 nM) | cell viability (Vero E6 [12]; 100 nM) | cell viability (Vero E6 [12]; 1000 nM) | cell viability (Vero E6 [12]; 10000 nM) | drug sensitivity score (Calu-3 [13]) | cell viability (Calu-3 [14]; 1 nM) | cell viability (Calu-3 [14]; 10 nM) | cell viability (Calu-3 [14]; 100 nM) | cell viability (Calu-3 [14]; 1000 nM) | cell viability (Calu-3 [14]; 10000 nM) |
| --- | --- | --- | --- | --- | --- | --- | --- | --- | --- | --- | --- | --- | --- | --- | --- | --- | --- | --- | --- | --- | --- | --- | --- | --- | --- | --- | --- | --- | --- | --- | --- | --- | --- | --- |
| CCOC(=O)c1cc2ccc(O)cc2oc1=O [YZ9] | 0 | 0 | 0 | 0 | > 10 µM | > 10 µM | > 10 µM | > 10 µM | 98.6% | 103% | 107% | 96.5% | 117% | 99.3% | 94.7% | 92.9% | 103% | 104% | 98.6% | 94.3% | 102% | 98.8% | 99.5% | 92% | 95.5% | 96.3% | 101% | 102% |  |  |  |  |  |  |
| N#C[C@@H]1CCCN1C(=O)CNC12CC3CC(CC(O)(C3)C1)C2 [vildagliptin] | 0 |  |  | 0 |  |  |  |  |  |  |  |  |  |  |  |  |  |  |  |  |  |  |  |  |  |  |  |  | 0 |  |  |  |  |  |
| CC(C)Nc1cc(-c2c[nH]c(C(=O)N[C@H](CO)c3cccc(Cl)c3)c2)c(Cl)cn1 [BVD-523] | 10.5 | 1.9 | 4.7 | 4.5 | 0.703 µM |  |  |  | 104% | 102% | 92.6% | 51.4% | 19.5% | 103% | 101% | 95.5% | 96.7% | 69.3% | 105% | 106% | 101% | 76.7% | 61.2% | 100% | 104% | 91.9% | 80.7% | 52.9% | 3.5 | 106% | 97.4% | 89.7% | 92.1% | 57.5% |
| Cc1cc(=O)n(-c2ccccc2)n1C [phenazone] | 0.8 | 0 |  | 0 |  |  |  |  |  |  |  |  |  |  |  |  |  |  |  |  |  |  |  |  |  |  |  |  | 0 |  |  |  |  |  |
| CCCC(CCC)C(=O)Nc1ccn([C@@H]2O[C@H](CO)[C@@H](O)C2(F)F)c(=O)n1 | 13 | 1 | 2.1 | 2 | 0.259 µM |  |  |  | 98.3% | 108% | 85% | 39.4% | 30.1% | 97.5% | 100% | 101% | 110% | 68.2% | 94.7% | 106% | 94.3% | 96.3% | 66.7% | 93.7% | 93% | 87.7% | 98.3% | 63% | 2.3 | 98.3% | 97.3% | 91% | 91.7% | 67.9% |
